Measurements published in US20220119354A1, “DIAMINO-SUBSTITUTED PYRIDINES AND PYRIMIDINES AS HERBICIDES” (FMC Corporation, priority 2019, published 2022).

What was measured:
Assay type in all cases: in vivo
kochia (Kochia scoparia) [1] = test: Test A preemergence, kochia; details: 0 to 100 scale
In short: (§1)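 0–100 visual control rating, ~10 d post-treatment, greenhouse. Pre = directed soil spray on seeded loam/sand; post = spray at 1–2 leaf stage. Surfactant-containing solvent formulation.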

[2] = tested on: foxtail, giant (Setaria faberii); test: Test A preemergence, giant foxtail; details: 0 to 100 scale
In short: as §1

rice (Oryza sativa) = test: Test B flooded paddy test, rice; details: Flood, 250 g ai/ha, applied to paddy water, 2-leaf stage, visual evaluation after 13 to 15 d
In short: (§2)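 Plants grown to 2-leaf stage. Compounds applied directly into paddy water flooded 3 cm above soil, with that depth kept throughout. After 13–15 d in greenhouse, visual rating versus controls on a 0–100 scale (0 no effect, 100 complete control).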

[3] = tested on: sedge, umbrella (small-flower umbrella sedge, Cyperus difformis); test: Test B flooded paddy test, umbrella sedge; details: Flood, 250 g ai/ha, applied to paddy water, 2-leaf stage, visual evaluation after 13 to 15 d
In short: as §2

[4] = tested on: pigweed (Amaranthus retroflexus); test: Test A postemergence, pigweed; details: 0 to 100 scale
In short: as §1

[5] = tested on: pigweed (Amaranthus retroflexus); test: Test A preemergence, pigweed; details: 0 to 100 scale
In short: as §1

[6] = tested on: ryegrass, Italian (Lolium multiflorum); test: Test A postemergence, Italian ryegrass; details: 0 to 100 scale
In short: as §1

[7] = tested on: galium (catchweed bedstraw, Galium aparine); test: Test A postemergence, galium; details: 0 to 100 scale
In short: as §1

[8] = tested on: ragweed (common ragweed, Ambrosia elatior); test: Test A preemergence, ragweed; details: 0 to 100 scale
In short: as §1

[9] = tested on: ragweed (common ragweed, Ambrosia elatior); test: Test A postemergence, ragweed; details: 0 to 100 scale
In short: as §1

[10] = tested on: ryegrass, Italian (Lolium multiflorum); test: Test A preemergence, Italian ryegrass; details: 0 to 100 scale
In short: as §1

corn (Zea mays) = test: Test A postemergence, corn; details: 0 to 100 scale
In short: as §1

[11] = tested on: barnyardgrass (Echinochloa crus-galli); test: Test B flooded paddy test, barnyardgrass; details: Flood, 250 g ai/ha, applied to paddy water, 2-leaf stage, visual evaluation after 13 to 15 d
In short: as §2

[12] = tested on: blackgrass (Alopecurus myosuroides); test: Test A postemergence, blackgrass; details: 0 to 100 scale
In short: as §1

[13] = tested on: ducksalad (Heteranthera limosa); test: Test B flooded paddy test, ducksalad; details: Flood, 250 g ai/ha, applied to paddy water, 2-leaf stage, visual evaluation after 13 to 15 d
In short: as §2

[14] = tested on: barnyardgrass (Echinochloa crus-galli); test: Test A preemergence, barnyardgrass; details: 0 to 100 scale
In short: as §1

[15] = tested on: foxtail, giant (Setaria faberii); test: Test A postemergence, giant foxtail; details: 0 to 100 scale
In short: as §1

[16] = tested on: wheat (Triticum aestivum); test: Test A postemergence, wheat; details: 0 to 100 scale
In short: as §1

kochia (Kochia scoparia) [17] = test: Test A postemergence, kochia; details: 0 to 100 scale
In short: as §1

[18] = tested on: barnyardgrass (Echinochloa crus-galli); test: Test A postemergence, barnyardgrass; details: 0 to 100 scale
In short: as §1

[19] = 125 g ai/ha, 0 is no effect, 100 is complete control

Q: Which “Plant response rating, Kochia” value (kochia (Kochia scoparia) [1]; 125 g ai/ha) does the source give for Nc1nc(NC(c2cc3ccccc3o2)C2CC2)ncc1C(F)(F)F (racemic) [Compound 18] here?
A: 0

Q: And the “Plant response rating, Kochia” value (kochia (Kochia scoparia) [1]; 500 g ai/ha)?
A: 60

Q: And the “Plant response rating, Foxtail, Giant” value ([2]; 125 g ai/ha)?
A: 90

Q: And the “Plant response rating, Foxtail, Giant” value ([2]; 500 g ai/ha)?
A: 90

Q: What about the “Plant response rating, Rice (0 to 100 scale, 0 is no effect, 100 is complete control)” value (rice (Oryza sativa)) of the same compound?
A: 0

Q: What about the “Plant response rating, Sedge, Umbrella (0 to 100 scale, 0 is no effect, 100 is complete control)” value [3] of the same compound?
A: 98

Q: And the “Plant response rating, Pigweed” value ([4]; 125 g ai/ha)?
A: 90

Q: And the “Plant response rating, Pigweed” value ([4]; 500 g ai/ha)?
A: 100

Q: And the “Plant response rating, Pigweed” value ([5]; 125 g ai/ha)?
A: 90

Q: And the “Plant response rating, Pigweed” value ([5]; 500 g ai/ha)?
A: 100

Q: What about the “Plant response rating, Ryegrass, Italian” value ([6]; 125 g ai/ha) of the same compound?
A: 0

Q: What about the “Plant response rating, Ryegrass, Italian” value ([6]; 500 g ai/ha) of the same compound?
A: 30

Q: What about the “Plant response rating, Galium” value ([7]; 125 g ai/ha) of the same compound?
A: 40

Q: What about the “Plant response rating, Galium” value ([7]; 500 g ai/ha) of the same compound?
A: 90

Q: What about the “Plant response rating, Ragweed” value ([8]; 125 g ai/ha) of the same compound?
A: 80

Q: And the “Plant response rating, Ragweed” value ([8]; 500 g ai/ha)?
A: 100

Q: And the “Plant response rating, Ragweed” value ([9]; 125 g ai/ha)?
A: 20

Q: What about the “Plant response rating, Ragweed” value ([9]; 500 g ai/ha) of the same compound?
A: 70

Q: And the “Plant response rating, Ryegrass, Italian” value ([10]; 125 g ai/ha)?
A: 50

Q: What about the “Plant response rating, Ryegrass, Italian” value ([10]; 500 g ai/ha) of the same compound?
A: 50

Q: What about the “Plant response rating, Corn” value (corn (Zea mays); 125 g ai/ha) of the same compound?
A: 0

Q: What about the “Plant response rating, Corn” value (corn (Zea mays); 500 g ai/ha) of the same compound?
A: 0

Q: What about the “Plant response rating, Barnyardgrass (0 to 100 scale, 0 is no effect, 100 is complete control)” value [11] of the same compound?
A: 0

Q: And the “Plant response rating, Blackgrass” value ([12]; 125 g ai/ha)?
A: 20

Q: And the “Plant response rating, Blackgrass” value ([12]; 500 g ai/ha)?
A: 80

Q: And the “Plant response rating, Ducksalad (0 to 100 scale, 0 is no effect, 100 is complete control)” value [13]?
A: 85

Q: And the “Plant response rating, Barnyardgrass” value ([14]; 125 g ai/ha)?
A: 50

Q: And the “Plant response rating, Barnyardgrass” value ([14]; 500 g ai/ha)?
A: 80

Q: What about the “Plant response rating, Foxtail, Giant” value ([15]; 125 g ai/ha) of the same compound?
A: 0

Q: What about the “Plant response rating, Foxtail, Giant” value ([15]; 500 g ai/ha) of the same compound?
A: 70

Q: What about the “Plant response rating, Wheat” value ([16]; 125 g ai/ha) of the same compound?
A: 20

Q: And the “Plant response rating, Wheat” value ([16]; 500 g ai/ha)?
A: 10

Q: What about the “Plant response rating, Kochia” value (kochia (Kochia scoparia) [17]; 125 g ai/ha) of the same compound?
A: 50

Q: And the “Plant response rating, Kochia” value (kochia (Kochia scoparia) [17]; 500 g ai/ha)?
A: 90

Q: What about the “Plant response rating, Barnyardgrass” value ([18]; 125 g ai/ha) of the same compound?
A: 10

Q: What about the “Plant response rating, Barnyardgrass” value ([18]; 500 g ai/ha) of the same compound?
A: 80

Q: Which “Kochia plant response rating” value (kochia (Kochia scoparia) [1]; [19]) does the source give for CC(COc1cc(Cl)cc(Cl)c1)Nc1ncc(C(F)(F)F)c(N)n1 (stereo not drawn) [Compound 35] here?
A: 0

Q: What about the “Plant response rating, Kochia” value (kochia (Kochia scoparia) [1]; 500 g ai/ha) of the same compound?
A: 40

Q: And the “Foxtail, Giant plant response rating” value [2, 19]?
A: 0

Q: What about the “Plant response rating, Foxtail, Giant” value ([2]; 500 g ai/ha) of the same compound?
A: 0

Q: And the “Plant response rating, Rice (0 to 100 scale, 0 is no effect, 100 is complete control)” value (rice (Oryza sativa))?
A: 0

Q: What about the “Plant response rating, Sedge, Umbrella (0 to 100 scale, 0 is no effect, 100 is complete control)” value [3] of the same compound?
A: 0

Q: What about the “Plant response rating, Pigweed” value ([4]; 125 g ai/ha) of the same compound?
A: 0

Q: What about the “Plant response rating, Pigweed” value ([4]; 500 g ai/ha) of the same compound?
A: 50

Q: And the “Pigweed plant response rating” value [5, 19]?
A: 0

Q: And the “Plant response rating, Pigweed” value ([5]; 500 g ai/ha)?
A: 0

Q: What about the “Plant response rating, Ryegrass, Italian” value ([6]; 125 g ai/ha) of the same compound?
A: 40

Q: And the “Plant response rating, Ryegrass, Italian” value ([6]; 500 g ai/ha)?
A: 30

Q: And the “Plant response rating, Galium” value ([7]; 125 g ai/ha)?
A: 0

Q: What about the “Plant response rating, Galium” value ([7]; 500 g ai/ha) of the same compound?
A: 60

Q: What about the “Ragweed plant response rating” value [8, 19] of the same compound?
A: 0

Q: What about the “Plant response rating, Ragweed” value ([8]; 500 g ai/ha) of the same compound?
A: 0

Q: What about the “Plant response rating, Ragweed” value ([9]; 125 g ai/ha) of the same compound?
A: 0

Q: And the “Plant response rating, Ragweed” value ([9]; 500 g ai/ha)?
A: 0

Q: What about the “Ryegrass, Italian plant response rating” value [10, 19] of the same compound?
A: 0

Q: What about the “Plant response rating, Ryegrass, Italian” value ([10]; 500 g ai/ha) of the same compound?
A: 0

Q: What about the “Plant response rating, Corn” value (corn (Zea mays); 125 g ai/ha) of the same compound?
A: 0

Q: What about the “Plant response rating, Corn” value (corn (Zea mays); 500 g ai/ha) of the same compound?
A: 0

Q: What about the “Plant response rating, Barnyardgrass (0 to 100 scale, 0 is no effect, 100 is complete control)” value [11] of the same compound?
A: 0

Q: What about the “Plant response rating, Blackgrass” value ([12]; 125 g ai/ha) of the same compound?
A: 0

Q: What about the “Plant response rating, Blackgrass” value ([12]; 500 g ai/ha) of the same compound?
A: 0

Q: What about the “Plant response rating, Ducksalad (0 to 100 scale, 0 is no effect, 100 is complete control)” value [13] of the same compound?
A: 0

Q: And the “Barnyardgrass plant response rating” value [14, 19]?
A: 0

Q: And the “Plant response rating, Barnyardgrass” value ([14]; 500 g ai/ha)?
A: 0

Q: What about the “Plant response rating, Foxtail, Giant” value ([15]; 125 g ai/ha) of the same compound?
A: 0

Q: What about the “Plant response rating, Foxtail, Giant” value ([15]; 500 g ai/ha) of the same compound?
A: 0

Q: And the “Plant response rating, Wheat” value ([16]; 125 g ai/ha)?
A: 0

Q: What about the “Plant response rating, Wheat” value ([16]; 500 g ai/ha) of the same compound?
A: 0

Q: What about the “Plant response rating, Kochia” value (kochia (Kochia scoparia) [17]; 125 g ai/ha) of the same compound?
A: 0

Q: And the “Plant response rating, Kochia” value (kochia (Kochia scoparia) [17]; 500 g ai/ha)?
A: 20

Q: And the “Plant response rating, Barnyardgrass” value ([18]; 125 g ai/ha)?
A: 20

Q: What about the “Plant response rating, Barnyardgrass” value ([18]; 500 g ai/ha) of the same compound?
A: 0
